# Results published in patent US20250051300A1, “GRAM-NEGATIVE SPECIFIC ANTIBIOTICS SPARING EFFECT ON GUT MICROBIOME” (THE BOARD OF TRUSTEES OF THE UNIVERSITY OF ILLINOIS, priority 2021, published 2025).
# Legend:
# Streptococcus salivarius = assay: MIC, gut commensal bacteria, micro-dilution broth
# Bacillus anthracis = assay: microbe, parasite or virus in culture; assay type: cell-based
# Bacteroides fragilis = assay: MIC, gut commensal bacteria, micro-dilution broth
# gut microbiome = details: mouse, in vivo, po
# K. pneumoniae BAA-1705 = assay: Bacterial sepsis survival model; assay type: in vivo, CD-1 mice; details: carbapenem-resistant K. pneumoniae, 200 mg/kg IP once daily for 3 days (FIG. 7D)
# K. pneumoniae ATCC 27736 = assay: Resistance frequency, large inoculum method; assay type: cell-based, Klebsiella pneumoniae; details: wild-type K. pneumoniae ATCC 27736, 8×MIC
# Procedure: (§1) Selection of resistant mutants. Resistant mutants were selected using the large inoculum method. Briefly, E. coli BW25113, K. pneumoniae ATCC 27736, or E. cloacae ATCC 29893 (˜1.0×10^7 c.f.u.) was plated on 100-mm plates of Luria Bertani agar containing 8, 16, 32, or 64 μg/mL, lolamycin. For E. coli ΔtolC (JW5503), ˜1.0×10^7 c.f.u. was plated on 100-mm plates of Luria Bertani agar containing 0.063, 0.13, 0.25, 0.5 μg/mL lolamycin. Colonies were visible after incubating at 37° C. for 48 h. Resistant colonies were confirmed by growing colonies in selective media with the same concentration of lolamycin.
# Enterococcus faecalis = assay: MIC, micro-dilution broth method (CLSI); assay type: cell-based
# Salmonella typhimurium = assay: MIC, micro-dilution broth method (CLSI); assay type: cell-based; details: Salmonella enterica, ATCC 14028 / TYPHIMURIUM; Salmonella typhimurium ATCC14028
# E. cloacae ATCC 29893 = assay: Resistance frequency, large inoculum method; assay type: cell-based, Enterobacter cloacae; details: wild-type E. cloacae ATCC 29893, 8×MIC
# Procedure: as §1
# [1] = system: Streptococcus parasanguinis; assay: MIC, gut commensal bacteria, micro-dilution broth
smiles,measurement,setting,value
"Cc1cc(-c2c[nH]nc2-c2cccc(OCc3cccc(C#N)c3)c2)cc(C)n1 [Compound 12, 3-((3-(4-(2,6-dimethylpyridin-4-yl)-1H-pyrazol-3-yl)phenoxy)methyl)benzonitrile]",MIC,Streptococcus salivarius; Streptococcus salivarius,> 128 µg/mL
same,MIC,"Streptococcus salivarius; Streptococcus salivarius KLE 2370, BHI-ych, listed as Lolamycin",>128 µg/mL
same,MIC,Bacillus anthracis,> 128 µg/mL
same,MIC,"Bacteroides fragilis; Bacteroides fragilis ATCC 25285, BHI-ych, listed as Lolamycin",>128 µg/mL
same,MIC,"Bacteroides fragilis; Bacteroides fragilis, ATCC25285",> 128 µg/mL
same,effect on gut microbiome taxonomic composition,gut microbiome,did not cause any drastic changes in taxonomic composition
same,"efficacy, survival",K. pneumoniae BAA-1705,showed the efficacy
same,resistance frequency,K. pneumoniae ATCC 27736,1.2×10^−8
same,MIC,Enterococcus faecalis; Enterococcus faecalis,> 128 µg/mL
same,MIC,"Enterococcus faecalis; Enterococcus faecalis KLE 2341, BHI-ych, listed as Lolamycin",>128 µg/mL
same,MIC,"Enterococcus faecalis; Enterococcus faecalis, ATCC19433",> 128 µg/mL
same,MIC,Salmonella typhimurium,1 µg/mL
same,resistance frequency,E. cloacae ATCC 29893,5.2×10^−7
same,MIC,[1]; Streptococcus parasanguinis,> 128 µg/mL
same,MIC,"[1]; Streptococcus parasanguinis KLE 2375, BHI-ych, listed as Lolamycin",>128 µg/mL
